According to US20100022559A1, “BISOXIMES AS FUNGICIDES” (BAYER CROPSCIENCE AG, priority 2006, published 2010):

Assay: logP determination by HPLC on a reversed-phase column (C 18), EEC Directive 79/831 Annex V.A8
Format: physicochemical
Conditions: method marker [a] (footnote not shown); isomer A / isomer B / isomer mixture as noted in the cell
Method: The stated logP values were determined in accordance with EEC Directive 79/831 Annex V.A8 by HPLC (high performance liquid chromatography) on a reversed-phase column (C 18). Temperature: 43° C.

| logP | Structure (SMILES) |
| --- | --- |
| 2.50^[a] | CC(=NOCC(=O)ON=C(C)c1cccc(C)n1)c1cccc(C)n1 [compound 158] |
| 2.40^[a] | CC(=NOC(=O)CCC(=O)ON=C(C)c1cccc(C)n1)c1cccc(C)n1 [compound 159] |
| 3.06^[a] | CC(=NOCCCON=C(C)c1ccnc(C)n1)c1ccnc(C)n1 [compound 161] |
| 1.54^a] | CC(=NOCCCON=C(C)c1cncc(C)c1)c1cncc(C)c1 [compound 163] |
| 1.78^a] | CC(=NOCC(C)CON=C(C)c1cncc(C)c1)c1cncc(C)c1 (stereo not shown) [compound 166] |
| 3.57^a] | CC(=NOCC(C)CON=C(C)c1ccnc(C)n1)c1ccnc(C)n1 (stereo not shown) [compound 168] |
| 2.75^[a] | Cc1cccc(C(CS(C)(=O)=O)=NOCCCON=C(CS(C)(=O)=O)c2cccc(C)n2)n1 [compound 170] |
| 2.44^[a] | CC(=NOCCCC(=O)ON=C(C)c1cccc(C)n1)c1cccc(C)n1 [compound 171] |
| 7.36^[a] | CC(=NOCC(C)CON=C(C)c1cccc(CC(C)C)n1)c1cccc(CC(C)C)n1 (stereo not shown) [compound 172] |
| 2.24^[a] | CC(=NOCC1(CON=C(C)c2cccc(C)n2)CO1)c1cccc(C)n1 (stereo not shown) [compound 220] |
| 2.65^[a) | CC(=NOCC(O)(CON=C(C)c1cccc(C)n1)CON=C(C)c1cccc(C)n1)c1cccc(C)n1 (stereo not shown) [compound 221] |
| 5.18^[a] | CCCC(=NOCCON=C(CCC)c1cccc(C)n1)c1cccc(C)n1 [compound 226] |
| 6.26^[a] | CCCC(=NOCCCCON=C(CCC)c1cccc(C)n1)c1cccc(C)n1 [compound 227] |
| 1.27^[a] | CC(=NOCCCON=C(C)c1ccc(C)nc1)c1ccc(C)nc1 [compound 228] |
| 7.36^[a] | CC(=NOCCCON=C(C)c1cccc(C(C)C)n1)c1cccc(C(C)C)n1 [compound 230] |

Same assay, conditions: method marker [b]; isomer A / isomer B / isomer mixture as noted in the cell

| logP | Structure (SMILES) |
| --- | --- |
| 2.91^[b] | C=C(CON=C(C)c1nc(C)cc(C)n1)CON=C(C)c1nc(C)cc(C)n1 [compound 146] |
| 3.34^[b] | C=C(CON=C(C)c1cccc(C)n1)CON=C(C)c1cccnc1Cl [compound 147] |
| 3.53^[b] | C=C(CON=C(C)c1cccnc1Cl)CON=C(C)c1cccnc1Cl [compound 148] |
| 5.82^[b] | C=C(CON=C(C)c1ncc(C(F)(F)F)cc1Cl)CON=C(C)c1ncc(C(F)(F)F)cc1Cl [compound 149] |
| 5.96^[b] | C=C(CON=C(C)c1cccc(Br)n1)CON=C(C)c1cccc(Br)n1 [compound 150] |
| 4.56^[b] | C=C(CON=C(C)c1ccc(Br)nc1)CON=C(C)c1ccc(Br)nc1 [compound 151] |
| 3.36^[b] | C=C(CON=C(C)c1ccc(C)cn1)CON=C(C)c1ccc(C)cn1 [compound 152] |
| 5.75^[b] | C=C(CON=C(C)c1ncc(Cl)cc1Cl)CON=C(C)c1ncc(Cl)cc1Cl [compound 153] |
| 3.28^[b] | CCC(=NOCCCON=C(C)c1cccc(C)n1)c1ncccc1C [compound 156] |
| 2.57^b] | CC(=NOCC(=O)ON=C(C)c1cccc(C)n1)c1cccc(C)n1 [compound 158] |
| 7.00^b] | C=C(CON=C(C)c1cc(C)c2ccccc2n1)CON=C(C)c1cc(C)c2ccccc2n1 [compound 160] |
| 6.02^[b] | C=C(CON=C(C)c1cccc(C(F)(F)F)n1)CON=C(C)c1cccc(C(F)(F)F)n1 [compound 176] |
| 5.46^[b] | C=C(CON=C(C)c1cc(C(=O)OC)cc(C)n1)CON=C(C)c1cc(C(=O)OC)cc(C)n1 [compound 178] |
| 1.92^[b] | C=C(CON=C(C)c1cccc(C)n1)CON=C(N)c1nc(COC)c(C)c(COC)n1 [compound 183] |
| 2.61^[b] | C=C(CON=C(C)c1cccc(C)n1)CON=C(N)c1nc(C)c(Cl)c(C)n1 [compound 184] |
| 3.17^[b] | C=C(CON=C(N)c1cc(C)cc(C)c1)CON=C(C)c1cccc(C)n1 [compound 185] |
| 1.73^[b] | C=C(CON=C(C)c1cccc(C)n1)CON=C(N)c1nccc(C)n1 [compound 187] |
| 4.32^[b] | C=C(CON=C(N)c1cc(Cl)cc(Cl)c1)CON=C(C)c1cccc(C)n1 [compound 190] |
| 2.13^[b] | C=C(CON=C(C)c1cccc(C)n1)CON=C(N)c1nc(C)c(C)c(C)n1 [compound 191] |
| 1.97^[b] | C=C(CON=C(C)c1cccc(C)n1)CON=C(N)c1nc(C)cc(C)n1 [compound 192] |
| 2.70^b] | C=C(CON=C(C)c1cccc(C)n1)CON=C(N)c1nc(C)cs1 [compound 193] |

| logP | Structure (SMILES) |
| --- | --- |
| 4.72^b] | C=C(CON=C(C)c1cccc(C)n1)CON=C(C)c1ncc(Cl)cc1Cl [compound 194] |
| 4.23^[b] | C=C(CON=C(C)c1cccc(C)n1)CON=C(C)c1cccs1 [compound 196] |
| 4.37^[b] | C=C(CON=C(C)c1cccc(C)n1)CON=C(C)c1cccn1C [compound 197] |
| 3.50^[b] | C=C(CON=C(C)c1cccc(C)n1)CON=C(C)c1c(C)noc1C [compound 198] |
| 2.23^[b] | C=C(CON=C(C)c1cccc(C)n1)CON=C(N)c1ccc(C)n1C [compound 199] |
| 3.94^[b] | C=C(CON=C(C)c1ccc(Cl)nc1)CON=C(C)c1cccc(C)n1 [compound 201] |
| 5.03^[b] | C=C(CON=C(C)c1cccc(C)c1)CON=C(C)c1cccc(C)n1 [compound 205] |
| 4.82^[b] | C=C(CON=C(C)c1cccc(C)n1)CON=C(C)c1cccc(OC)n1 [compound 207] |
| 4.08^[b] | C=C(CON=C(C)c1ccc(Br)nc1)CON=C(C)c1cccc(C)n1 [compound 208] |
| 3.33^b] | C=C(CON=C(C)c1ccc(C)cn1)CON=C(C)c1cccc(C)n1 [compound 209] |
| 4.37^[b] | C=C(CON=C(C)c1cccc(C)n1)CON=C(N)c1cc(C(F)(F)F)cc(C)n1 [compound 210] |
| 5.70^[b] | C=C(CON=C(C)c1cccc(C)n1)CON=C(C)c1cc(C(F)(F)F)cc(C)n1 [compound 211] |
| 4.83^[b] | Cc1cccc(C(=NOCC(C)CON=C(c2cccc(C)n2)C(F)(F)F)C(F)(F)F)n1 (stereo not shown) [compound 214] |
| 3.09^[b] | CC(=NOCC1OC(C)(C)OC1CON=C(C)c1cccc(C)n1)c1cccc(C)n1 (stereo not shown) [compound 215] |
| 4.79^[b] | C=C(CON=C(C)c1cccc(C)n1)CON=C(C)c1nc2ccccc2s1 [compound 218] |
| 2.48^[b) | C=C(CON=C(C)c1cccc(C)n1)CON=C(N)c1ncc(F)cc1F [compound 242] |
| 3.50^[b] | C=C(CON=C(C)c1cccc(C)n1)CON=C(N)c1ncc(C(F)(F)F)cc1Cl [compound 245] |
| 3.00^[b] | C=C(CON=C(C)c1cccc(C)n1)CON=C(N)c1ncc(Cl)cc1Cl [compound 246] |
| 4.61^[b] | COc1cccc(C(C)=NOCC(=O)CON=C(C)c2cccc(OC)n2)n1 [compound 247] |
| 3.17^[b] | C=C(CON=C(C)c1cccc(C)n1)CON=C(C)c1nccc(OCC)n1 [compound 249] |
| 3.42^[b] | C=C(CON=C(C)c1nccc(OCC)n1)CON=C(C)c1nccc(OCC)n1 [compound 252] |

Same assay, conditions: value marked [a]

| logP | Structure (SMILES) |
| --- | --- |
| 1.84^[a] | CC(=NOCCCON=C(C)c1nc(C)c(C)cc1C)c1nc(C)c(C)cc1C [compound 256] |
| 4.06^[a] | CCOC(=O)c1cccc(C(C)=NOCCCON=C(C)c2cccc(C(=O)OCC)n2)n1 [compound 257] |
| 5.03^[a] | CCOC(=O)c1cccc(C(C)=NOCC(C)CON=C(C)c2cccc(C(=O)OCC)n2)n1 (stereo not shown) [compound 258] |
| 2.70^[a] | CC(=NOCCCON=C(C)c1cc(C)n(C)n1)c1cc(C)n(C)n1 [compound 259] |
| 3.96^[a] | CC(=NOCCCON=C(C)c1ccc2c(n1)CCCC2)c1ccc2c(n1)CCCC2 [compound 305] |
| 5.49^[a] | CC(=NOCC(C)CON=C(C)c1cccc(C(F)F)n1)c1cccc(C(F)F)n1 (stereo not shown) [compound 306] |

Same assay, conditions: value marked [b]

| logP | Structure (SMILES) |
| --- | --- |
| 3.05^[b] | COc1cc(O)nc(C(C)=NOCC(C)CON=C(C)c2nc(OC)cc(OC)n2)n1 (stereo not shown) [compound 271] |
| 4.86^[b] | CC(=NOCC(C)CON=C(C)c1nc(C)cc(C(F)(F)F)n1)c1nc(C)cc(C(F)(F)F)n1 (stereo not shown) [compound 273] |
| 2.33^[b] | C=C(CON=C(C)c1cc(C)c(C)nn1)CON=C(C)c1cc(C)c(C)nn1 [compound 284] |
| 2.17^[b] | CC(=NOC[C@@H]1O[C@H]1CON=C(C)c1cccc(C)n1)c1cccc(C)n1 [compound 285] |
| 2.42^[b] | CC(=NOC[C@@H]1O[C@@H]1CON=C(C)c1cccc(C)n1)c1cccc(C)n1 [compound 287] |
| 4.44^[b] | C=C(CON=C(C)c1cccc(COC)n1)CON=C(C)c1cccc(COC)n1 [compound 291] |
| 1.46^[b] | CC(=NOCC(O)CON=C(C)c1cccc(C)n1)c1cccc(C)n1 (stereo not shown) [compound 293] |
| 2.58^[b] | CC(=NOCC(C)CON=C(C)c1cc(C)c(C)nn1)c1cc(C)c(C)nn1 (stereo not shown) [compound 309] |
| 1.69^[b] | CC(=NOCC(C)CON=C(C)c1cccc(C)[n+]1[O-])c1cccc(C)[n+]1[O-] (stereo not shown) [compound 314] |
| 1.36^[b] | CC(=NOCC(O)CON=C(C)c1ccc(C)c(C)n1)c1ccc(C)c(C)n1 (stereo not shown) [compound 323] |
| 5.84^[b] | CC(=NOCCCCON=C(C)c1cccc(Cc2ccccc2)n1)c1cccc(C)n1 [compound 324] |
| 3.89^[b] | CC(=NOCCCCON=C(c1ccccc1)c1ncccc1C)c1cccc(C)n1 [compound 325] |
| 6.16^[b] | CC(=NOCCCCON=C(C)c1cccc(CC(C)C)n1)c1cccc(C)n1 [compound 326] |
| 4.72^[b] | CCc1cccc(C(C)=NOCCCCON=C(C)c2cccc(C)n2)n1 [compound 329] |
| 4.82^[b] | CCCC(=NOCCCCON=C(C)c1cccc(C)n1)c1cccc(C)n1 [compound 330] |
| 3.51^[b] | CC(=NOCCCCON=C(c1ccccc1)c1cccc(C)n1)c1cccc(C)n1 [compound 332] |
| 4.10^[b] | CCC(=NOCCCCON=C(C)c1cccc(C)n1)c1cccc(C)n1 [compound 333] |
| 4.72^[b] (isomer B) | CC(=NOCCCCON=C(c1cccc(C)n1)C(C)C)c1cccc(C)n1 [compound 334] |

Same assay, conditions: value marked [c]

| logP | Structure (SMILES) |
| --- | --- |
| 3.81^[c] | CC(=NOCC(O)CON=C(C)c1ccc(C)c(C)n1)c1ccc(C)c(C)n1 (stereo not shown) [compound 323] |
